ChEMBL document CHEMBL1201861, “Genomics of Drug Sensitity in Cancer screening data, Wellcome Trust Sanger Institute”

Columns and labels:
Assay in all cases: cells
[1] = test system: NH-12; assay type: functional, cell-based, Homo sapiens; conditions: Homo sapiens, NH-12;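 also: growth inhibition of NH-12 cells, read out with a cell viability assay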
Description: SANGER: Inhibition of human NH-12 cell growth in a cell viability assay.

[2] = test system: SBC-1; assay type: functional, cell-based, Homo sapiens; conditions: Homo sapiens, SBC-1;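 also: cell viability assay measuring growth inhibition of the SBC-1 cell line, IC50 being the concentration that halves growth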
Description: SANGER: Inhibition of human SBC-1 cell growth in a cell viability assay.

[3] = test system: P30-OHK; assay type: functional, cell-based, Homo sapiens; conditions: Homo sapiens, P30-OHK;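 also: growth inhibition of the P30-OHK cell line, read out with a cell viability assay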
Description: SANGER: Inhibition of human P30-OHK cell growth in a cell viability assay.

[4] = test system: HH; assay type: functional, cell-based, Homo sapiens; conditions: Homo sapiens, HH
Description: SANGER: Inhibition of human HH cell growth in a cell viability assay.

[5] = test system: KU812 cell line; assay type: functional, cell-based, Homo sapiens; conditions: Homo sapiens, KU812;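 also: growth inhibition of KU812 cells, read out with a cell viability assay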
Description: SANGER: Inhibition of human KU812 cell growth in a cell viability assay.

[6] = test system: TGW; assay type: functional, cell-based, Homo sapiens; conditions: Homo sapiens, TGW;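 also: growth inhibition of human TGW cells, read out with a cell viability assay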
Description: SANGER: Inhibition of human TGW cell growth in a cell viability assay.

[7] = test system: COLO-668; assay type: functional, cell-based, Homo sapiens; conditions: Homo sapiens, COLO-668
Description: SANGER: Inhibition of human COLO-668 cell growth in a cell viability assay.

[8] = test system: LS-513; assay type: functional, cell-based, Homo sapiens; conditions: Homo sapiens, LS-513
Description: SANGER: Inhibition of human LS-513 cell growth in a cell viability assay.

[9] = test system: NCI-H1092; assay type: functional, cell-based, Homo sapiens; conditions: Homo sapiens, NCI-H1092;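 also: cell growth inhibition measured with a cell viability assay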
Description: SANGER: Inhibition of human NCI-H1092 cell growth in a cell viability assay.

[10] = test system: EW-13; assay type: functional, cell-based, Homo sapiens; conditions: Homo sapiens, EW-13;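 also: growth inhibition of EW-13 cells, read out with a cell viability assay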
Description: SANGER: Inhibition of human EW-13 cell growth in a cell viability assay.

[11] = test system: NB17; assay type: functional, cell-based, Homo sapiens; conditions: Homo sapiens, NB17;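 also: growth inhibition of NB17 cells, read out with a cell viability assay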
Description: SANGER: Inhibition of human NB17 cell growth in a cell viability assay.

[12] = test system: COR-L88; assay type: functional, cell-based, Homo sapiens; conditions: Homo sapiens, COR-L88;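 also: growth inhibition of COR-L88 cells, read out with a cell viability assay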
Description: SANGER: Inhibition of human COR-L88 cell growth in a cell viability assay.

[13] = test system: JAR; assay type: functional, cell-based, Homo sapiens; conditions: Homo sapiens, JAR;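 also: growth inhibition of human JAR cells determined with a cell viability assay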
Description: SANGER: Inhibition of human JAR cell growth in a cell viability assay.

[14] = test system: DMS-79; assay type: functional, cell-based, Homo sapiens; conditions: Homo sapiens, DMS-79;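 also: growth inhibition measured with a cell viability assay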
Description: SANGER: Inhibition of human DMS-79 cell growth in a cell viability assay.

[15] = test system: HAL-01; assay type: functional, cell-based, Homo sapiens; conditions: Homo sapiens, HAL-01;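 also: growth inhibition of human HAL-01 cells, read out with a cell viability assay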
Description: SANGER: Inhibition of human HAL-01 cell growth in a cell viability assay.

[16] = test system: HL-60; assay type: functional, cell-based, Homo sapiens; conditions: Homo sapiens, HL-60;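 also: growth inhibition of human HL-60 cells, read out with a cell viability assay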
Description: SANGER: Inhibition of human HL-60 cell growth in a cell viability assay.

[17] = test system: GAK; assay type: functional, cell-based, Homo sapiens; conditions: Homo sapiens, GAK;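 also: cell growth inhibition read out by a cell viability assay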
Description: SANGER: Inhibition of human GAK cell growth in a cell viability assay.

[18] = test system: DSH1; assay type: functional, cell-based, Homo sapiens; conditions: Homo sapiens, DSH1;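 also: growth inhibition of human DSH1 cells, measured with a cell viability readout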
Description: SANGER: Inhibition of human DSH1 cell growth in a cell viability assay.

[19] = test system: SW982; assay type: functional, cell-based, Homo sapiens; conditions: Homo sapiens, SW982;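 also: growth inhibition of SW982 cells, read out with a cell viability assay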
Description: SANGER: Inhibition of human SW982 cell growth in a cell viability assay.

[20] = test system: CTB-1; assay type: functional, cell-based, Homo sapiens; conditions: Homo sapiens, CTB-1
Description: SANGER: Inhibition of human CTB-1 cell growth in a cell viability assay.

[21] = test system: SNU-C2B; assay type: functional, cell-based, Homo sapiens; conditions: Homo sapiens, SNU-C2B;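 also: cell viability readout used to measure compound-driven suppression of SNU-C2B cell proliferation, IC50 marking half-maximal growth inhibition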
Description: SANGER: Inhibition of human SNU-C2B cell growth in a cell viability assay.

[22] = test system: QIMR-WIL; assay type: functional, cell-based, Homo sapiens; conditions: Homo sapiens, QIMR-WIL;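 also: growth inhibition of QIMR-WIL cells, read out with a cell viability assay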
Description: SANGER: Inhibition of human QIMR-WIL cell growth in a cell viability assay.

[23] = test system: SK-MEL-2; assay type: functional, cell-based, Homo sapiens; conditions: Homo sapiens, SK-MEL-2;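 also: growth inhibition of human SK-MEL-2 cells measured with a cell viability assay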
Description: SANGER: Inhibition of human SK-MEL-2 cell growth in a cell viability assay.

[24] = test system: HD-MY-Z; assay type: functional, cell-based, Homo sapiens; conditions: Homo sapiens, HD-MY-Z;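 also: growth inhibition of HD-MY-Z cells, read out with a cell viability assay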
Description: SANGER: Inhibition of human HD-MY-Z cell growth in a cell viability assay.

[25] = test system: KURAMOCHI; assay type: functional, cell-based, Homo sapiens; conditions: Homo sapiens, KURAMOCHI;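 also: growth inhibition of KURAMOCHI cells, read out with a cell viability assay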
Description: SANGER: Inhibition of human KURAMOCHI cell growth in a cell viability assay.

[26] = test system: KM12; assay type: functional, cell-based, Homo sapiens; conditions: Homo sapiens, KM12;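 also: KM12 cell growth inhibition, read out with a cell viability assay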
Description: SANGER: Inhibition of human KM12 cell growth in a cell viability assay.

[27] = test system: LS-123; assay type: functional, cell-based, Homo sapiens; conditions: Homo sapiens, LS-123
Description: SANGER: Inhibition of human LS-123 cell growth in a cell viability assay.

[28] = test system: 8-MG-BA; assay type: functional, cell-based, Homo sapiens; conditions: Homo sapiens, 8-MG-BA;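 also: growth inhibition of 8-MG-BA cells, read out with a cell viability assay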
Description: SANGER: Inhibition of human 8-MG-BA cell growth in a cell viability assay.

[29] = test system: CW-2; assay type: functional, cell-based, Homo sapiens; conditions: Homo sapiens, CW-2;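 also: growth inhibition of CW-2 cells, read out by a cell viability assay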
Description: SANGER: Inhibition of human CW-2 cell growth in a cell viability assay.

[30] = test system: MC116; assay type: functional, cell-based, Homo sapiens; conditions: Homo sapiens, MC116;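 also: growth inhibition of MC116 cells, read out with a cell viability assay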
Description: SANGER: Inhibition of human MC116 cell growth in a cell viability assay.

[31] = test system: EW-11; assay type: functional, cell-based, Homo sapiens; conditions: Homo sapiens, EW-11;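 also: growth inhibition of human EW-11 cells, measured with a cell viability assay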
Description: SANGER: Inhibition of human EW-11 cell growth in a cell viability assay.

[32] = test system: NCI-H69; assay type: functional, cell-based, Homo sapiens; conditions: Homo sapiens, NCI-H69;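 also: growth inhibition of the cell line, read out with a cell viability assay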
Description: SANGER: Inhibition of human NCI-H69 cell growth in a cell viability assay.

[33] = test system: ONS-76; assay type: functional, cell-based, Homo sapiens; conditions: Homo sapiens, ONS-76;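 also: growth inhibition of human ONS-76 cells, read out with a cell viability assay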
Description: SANGER: Inhibition of human ONS-76 cell growth in a cell viability assay.

[34] = test system: A388; assay type: functional, cell-based, Homo sapiens; conditions: Homo sapiens, A388;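 also: growth inhibition of human A388 cells, read out with a cell viability assay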
Description: SANGER: Inhibition of human A388 cell growth in a cell viability assay.

[35] = test system: KMOE-2; assay type: functional, cell-based, Homo sapiens; conditions: Homo sapiens, KMOE-2;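 also: growth inhibition of human KMOE-2 cells, read out with a cell viability assay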
Description: SANGER: Inhibition of human KMOE-2 cell growth in a cell viability assay.

[36] = test system: MFM-223; assay type: functional, cell-based, Homo sapiens; conditions: Homo sapiens, MFM-223
Description: SANGER: Inhibition of human MFM-223 cell growth in a cell viability assay.

[37] = test system: MLMA; assay type: functional, cell-based, Homo sapiens; conditions: Homo sapiens, MLMA;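 also: growth inhibition of MLMA cells (human), determined through a cell viability readout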
Description: SANGER: Inhibition of human MLMA cell growth in a cell viability assay.

[38] = test system: TGBC1TKB; assay type: functional, cell-based, Homo sapiens; conditions: Homo sapiens, TGBC1TKB;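 also: growth inhibition of TGBC1TKB cells, read out by a cell viability assay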
Description: SANGER: Inhibition of human TGBC1TKB cell growth in a cell viability assay.

[39] = test system: CGTH-W-1; assay type: functional, cell-based, Homo sapiens; conditions: Homo sapiens, CGTH-W-1;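 also: growth inhibition of human CGTH-W-1 cells measured by cell viability assay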
Description: SANGER: Inhibition of human CGTH-W-1 cell growth in a cell viability assay.

[40] = test system: U-87 MG; assay type: functional, cell-based, Homo sapiens, U-87MG ATCC; conditions: Homo sapiens, U-87 MG;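 also: growth inhibition of the cells measured with a viability assay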
Description: SANGER: Inhibition of human U-87-MG cell growth in a cell viability assay.

[41] = test system: LC-2-ad; assay type: functional, cell-based, Homo sapiens; conditions: Homo sapiens, LC-2-ad;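 also: growth inhibition of human LC-2-ad cells, read out with a cell viability assay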
Description: SANGER: Inhibition of human LC-2-ad cell growth in a cell viability assay.

[42] = test system: OS-RC-2; assay type: functional, cell-based, Homo sapiens; conditions: Homo sapiens, OS-RC-2;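 also: growth inhibition of human OS-RC-2 cells, measured by a cell viability assay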
Description: SANGER: Inhibition of human OS-RC-2 cell growth in a cell viability assay.

[43] = test system: OCUB-M; assay type: functional, cell-based, Homo sapiens; conditions: Homo sapiens, OCUB-M;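 also: growth inhibition of the cancer cell line, read out through a cell viability assay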
Description: SANGER: Inhibition of human OCUB-M cell growth in a cell viability assay.

[44] = test system: LAMA-84; assay type: functional, cell-based, Homo sapiens; conditions: Homo sapiens, LAMA-84;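 also: growth inhibition of LAMA-84 cells, read out with a cell viability assay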
Description: SANGER: Inhibition of human LAMA-84 cell growth in a cell viability assay.

[45] = test system: SK-UT-1; assay type: functional, cell-based, Homo sapiens; conditions: Homo sapiens, SK-UT-1;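 also: growth inhibition of SK-UT-1 cells, measured by a cell viability assay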
Description: SANGER: Inhibition of human SK-UT-1 cell growth in a cell viability assay.

[46] = test system: ES3; assay type: functional, cell-based, Homo sapiens; conditions: Homo sapiens, ES3;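 also: growth inhibition of ES3 cells, read out with a cell viability assay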
Description: SANGER: Inhibition of human ES3 cell growth in a cell viability assay.

[47] = test system: K562; assay type: functional, cell-based, Homo sapiens; conditions: Homo sapiens, K562
Description: SANGER: Inhibition of human K-562 cell growth in a cell viability assay.

[48] = test system: MS-1; assay type: functional, cell-based, Homo sapiens; conditions: Homo sapiens, MS-1;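 also: growth inhibition of MS-1 cells, read out by cell viability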
Description: SANGER: Inhibition of human MS-1 cell growth in a cell viability assay.

[49] = test system: HCC 2998; assay type: functional, cell-based, Homo sapiens; conditions: Homo sapiens, HCC 2998;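 also: growth inhibition of human HCC2998 cells, measured with a cell viability read-out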
Description: SANGER: Inhibition of human HCC2998 cell growth in a cell viability assay.

In the case of `Cc1ccc(-c2c(C(=O)CCl)n(CCCO)c3ncnc(N)c23)cc1`, the IC50 [1] is reported as > 4000 nM, the IC50 [2] is reported as > 4000 nM and the IC50 [3] is reported as > 4000 nM. For the same compound, the IC50 [4] was > 4000 nM, the IC50 [5] was > 4000 nM and the IC50 [6] was > 4000 nM. For the same compound, the IC50 [7] was > 4000 nM, the IC50 [8] was > 4000 nM and the IC50 [9] was > 4000 nM. For the same compound, the IC50 [10] was > 4000 nM, the IC50 [11] was 1120 nM and the IC50 [12] was > 4000 nM. For the same compound, the IC50 [13] was > 4000 nM, the IC50 [14] was > 4000 nM and the IC50 [15] was > 4000 nM. For the same compound, the IC50 [16] was > 4000 nM, the IC50 [17] was > 4000 nM and the IC50 [18] was > 4000 nM. The IC50 [19] was 1310 nM, the IC50 [20] was 1620 nM and the IC50 [21] was > 4000 nM. For the same compound, the IC50 [22] was > 4000 nM, the IC50 [23] was > 4000 nM and the IC50 [24] was 2500 nM. The IC50 [25] was > 4000 nM, the IC50 [26] was > 4000 nM and the IC50 [27] was > 4000 nM. The IC50 [28] was > 4000 nM, the IC50 [29] was > 4000 nM and the IC50 [30] was > 4000 nM. The IC50 [31] was > 4000 nM, the IC50 [32] was > 4000 nM and the IC50 [33] was > 4000 nM. For the same compound, the IC50 [34] was 2190 nM, the IC50 [35] was > 4000 nM and the IC50 [36] was > 4000 nM. The IC50 [37] was > 4000 nM, the IC50 [38] was > 4000 nM and the IC50 [39] was > 4000 nM. For the same compound, the IC50 [40] was > 4000 nM, the IC50 [41] was 2740 nM and the IC50 [42] was > 4000 nM. The IC50 [43] was > 4000 nM, the IC50 [44] was > 4000 nM and the IC50 [45] was > 4000 nM. The IC50 [46] was > 4000 nM, the IC50 [47] was > 4000 nM and the IC50 [48] was > 4000 nM.

With `OCCCNc1cc(-c2ccnc(Nc3cccc(Cl)c3)n2)ccn1` the IC50 [1] was > 256 nM, the IC50 [2] was > 256 nM and the IC50 [3] was > 256 nM. The IC50 [4] was 70.6 nM, the IC50 [5] was 45 nM and the IC50 [6] was 76.9 nM. The IC50 [7] was 236 nM, the IC50 [8] was > 256 nM and the IC50 [9] was 108 nM. For the same compound, the IC50 [10] was > 256 nM, the IC50 [11] was 88.7 nM and the IC50 [12] was > 256 nM. The IC50 [13] was 81.8 nM, the IC50 [14] was > 256 nM and the IC50 [15] was 66 nM. The IC50 [16] was > 256 nM, the IC50 [17] was > 256 nM and the IC50 [18] was > 256 nM. It also gave an IC50 [19] of 25.4 nM, an IC50 [20] of 153 nM and an IC50 [21] of 104 nM. The IC50 [22] was 48.8 nM, the IC50 [23] was > 256 nM and the IC50 [24] was 60.2 nM. The IC50 [25] was 59.8 nM, the IC50 [26] was 124 nM and the IC50 [27] was 93 nM. The IC50 [28] was 56 nM, the IC50 [29] was > 256 nM and the IC50 [30] was 40.7 nM. The IC50 [31] was > 256 nM, the IC50 [32] was > 256 nM and the IC50 [33] was 76.1 nM. For the same compound, the IC50 [34] was 47.7 nM, the IC50 [35] was > 256 nM and the IC50 [36] was > 256 nM. For the same compound, the IC50 [37] was 57.4 nM, the IC50 [38] was 23.6 nM and the IC50 [39] was 79.8 nM. The IC50 [40] was > 256 nM, the IC50 [41] was 16.6 nM and the IC50 [42] was 82.9 nM. The IC50 [43] was 52.5 nM, the IC50 [44] was 203 nM and the IC50 [45] was 157 nM. The IC50 [46] was > 256 nM, the IC50 [47] was > 256 nM and the IC50 [48] was 196 nM.

`Nc1cccc2c1CN(C1CCC(=O)NC1=O)C2=O` (centres undefined) [LENALIDOMIDE] was tested, and the IC50 [1] was > 5000 nM, the IC50 [2] was > 5000 nM and the IC50 [3] was > 5000 nM. The IC50 [4] was > 5000 nM, the IC50 [5] was > 5000 nM and the IC50 [7] was > 5000 nM. The IC50 [8] was > 5000 nM, the IC50 [9] was > 5000 nM and the IC50 [10] was > 5000 nM. The IC50 [11] was > 5000 nM, the IC50 [12] was > 5000 nM and the IC50 [13] was 2970 nM. For the same compound, the IC50 [14] was > 5000 nM, the IC50 [15] was > 5000 nM and the IC50 [16] was > 5000 nM. The IC50 [17] was > 5000 nM, the IC50 [18] was > 5000 nM and the IC50 [19] was > 5000 nM. For the same compound, the IC50 [20] was > 5000 nM, the IC50 [21] was > 5000 nM and the IC50 [22] was > 5000 nM. For the same compound, the IC50 [23] was > 5000 nM, the IC50 [24] was > 5000 nM and the IC50 [25] was > 5000 nM. For the same compound, the IC50 [26] was > 5000 nM, the IC50 [27] was > 5000 nM and the IC50 [28] was > 5000 nM. For the same compound, the IC50 [29] was > 5000 nM, the IC50 [30] was > 5000 nM and the IC50 [31] was > 5000 nM. For the same compound, the IC50 [32] was > 5000 nM, the IC50 [33] was > 5000 nM and the IC50 [34] was > 5000 nM. The IC50 [35] was > 5000 nM, the IC50 [36] was > 5000 nM and the IC50 [37] was > 5000 nM. The IC50 [38] was > 5000 nM, the IC50 [39] was > 5000 nM and the IC50 [40] was > 5000 nM. The IC50 [41] was > 5000 nM, the IC50 [42] was > 5000 nM and the IC50 [43] was > 5000 nM. The IC50 [49] was > 5000 nM, the IC50 [44] was > 5000 nM and the IC50 [45] was > 5000 nM. The IC50 [46] was > 5000 nM, the IC50 [47] was > 5000 nM and the IC50 [48] was > 5000 nM.
